The values below come from ChEMBL document CHEMBL1152560, “Substituted 2-arylbenzothiazoles as kinase inhibitors: hit-to-lead optimization” (Bioorg Med Chem, 2009).

Test [1] has as its target T1, G protein-coupled receptor kinase 3 (Homo sapiens) (UniProt P35626).
T1 sequence (whole entry): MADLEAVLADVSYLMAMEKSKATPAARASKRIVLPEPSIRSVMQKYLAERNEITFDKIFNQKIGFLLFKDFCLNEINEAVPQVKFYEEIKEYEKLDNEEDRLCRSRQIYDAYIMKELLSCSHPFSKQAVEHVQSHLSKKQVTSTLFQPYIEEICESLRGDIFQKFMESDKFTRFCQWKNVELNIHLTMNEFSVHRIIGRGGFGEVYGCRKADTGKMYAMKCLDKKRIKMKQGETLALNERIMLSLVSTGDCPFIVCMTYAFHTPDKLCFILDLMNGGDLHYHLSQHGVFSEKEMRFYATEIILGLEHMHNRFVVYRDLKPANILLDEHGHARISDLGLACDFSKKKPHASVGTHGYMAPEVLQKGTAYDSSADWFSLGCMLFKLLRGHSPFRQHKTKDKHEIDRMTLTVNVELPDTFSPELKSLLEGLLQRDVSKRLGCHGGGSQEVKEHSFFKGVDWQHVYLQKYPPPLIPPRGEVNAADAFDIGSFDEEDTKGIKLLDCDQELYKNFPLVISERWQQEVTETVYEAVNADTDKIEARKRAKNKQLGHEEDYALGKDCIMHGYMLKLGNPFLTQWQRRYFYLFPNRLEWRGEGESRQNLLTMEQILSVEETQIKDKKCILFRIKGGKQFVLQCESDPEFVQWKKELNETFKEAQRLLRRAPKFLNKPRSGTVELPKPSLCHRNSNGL
Briefly: Residual activity of GRK3 at 10 uM by microplate scintillation counting.

Test [2] addresses T2, Eukaryotic translation initiation factor 2-alpha kinase 3 (Homo sapiens) (UniProt Q9NZJ5).
T2 sequence (whole entry): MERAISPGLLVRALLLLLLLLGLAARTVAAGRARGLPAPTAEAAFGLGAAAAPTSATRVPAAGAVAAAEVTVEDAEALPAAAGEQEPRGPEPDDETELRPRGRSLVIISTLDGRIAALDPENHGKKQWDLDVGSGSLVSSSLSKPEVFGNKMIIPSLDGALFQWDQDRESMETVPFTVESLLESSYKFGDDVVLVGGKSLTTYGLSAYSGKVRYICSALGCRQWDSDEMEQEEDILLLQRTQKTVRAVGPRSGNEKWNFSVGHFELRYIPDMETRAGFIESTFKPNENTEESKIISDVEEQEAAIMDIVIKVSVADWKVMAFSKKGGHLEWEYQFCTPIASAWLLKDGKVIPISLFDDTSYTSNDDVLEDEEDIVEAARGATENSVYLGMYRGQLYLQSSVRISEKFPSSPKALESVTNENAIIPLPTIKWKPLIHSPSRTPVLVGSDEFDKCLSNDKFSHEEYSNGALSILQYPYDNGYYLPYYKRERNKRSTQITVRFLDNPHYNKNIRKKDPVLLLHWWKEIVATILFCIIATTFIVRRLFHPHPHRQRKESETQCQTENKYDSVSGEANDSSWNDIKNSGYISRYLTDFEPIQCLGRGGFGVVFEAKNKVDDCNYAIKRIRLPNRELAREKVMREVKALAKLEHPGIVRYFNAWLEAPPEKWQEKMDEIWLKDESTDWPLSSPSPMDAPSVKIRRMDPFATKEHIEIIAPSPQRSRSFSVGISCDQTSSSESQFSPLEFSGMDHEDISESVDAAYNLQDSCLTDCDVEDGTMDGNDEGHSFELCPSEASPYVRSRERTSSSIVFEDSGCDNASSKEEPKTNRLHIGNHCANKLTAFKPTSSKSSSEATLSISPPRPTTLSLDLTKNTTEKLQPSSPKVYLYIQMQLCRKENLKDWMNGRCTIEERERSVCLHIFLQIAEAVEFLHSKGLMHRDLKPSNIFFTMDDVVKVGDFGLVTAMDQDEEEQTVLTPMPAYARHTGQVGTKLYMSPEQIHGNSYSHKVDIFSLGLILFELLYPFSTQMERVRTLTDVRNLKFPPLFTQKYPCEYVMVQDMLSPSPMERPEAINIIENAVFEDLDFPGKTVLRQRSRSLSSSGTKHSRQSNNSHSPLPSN
The test can be described thus: Residual activity of EIF2AK3 at 0.1 uM by microplate scintillation counting.

Test [3] concerns the target Protein kinase C theta type (Homo sapiens) (UniProt Q04759). Briefly: Residual activity of PKCtheta at 10 uM by microplate scintillation counting.
For test [4], the target named is T3, Tyrosine-protein kinase receptor TYRO3 (Homo sapiens) (UniProt Q06418).
T3 sequence (whole entry): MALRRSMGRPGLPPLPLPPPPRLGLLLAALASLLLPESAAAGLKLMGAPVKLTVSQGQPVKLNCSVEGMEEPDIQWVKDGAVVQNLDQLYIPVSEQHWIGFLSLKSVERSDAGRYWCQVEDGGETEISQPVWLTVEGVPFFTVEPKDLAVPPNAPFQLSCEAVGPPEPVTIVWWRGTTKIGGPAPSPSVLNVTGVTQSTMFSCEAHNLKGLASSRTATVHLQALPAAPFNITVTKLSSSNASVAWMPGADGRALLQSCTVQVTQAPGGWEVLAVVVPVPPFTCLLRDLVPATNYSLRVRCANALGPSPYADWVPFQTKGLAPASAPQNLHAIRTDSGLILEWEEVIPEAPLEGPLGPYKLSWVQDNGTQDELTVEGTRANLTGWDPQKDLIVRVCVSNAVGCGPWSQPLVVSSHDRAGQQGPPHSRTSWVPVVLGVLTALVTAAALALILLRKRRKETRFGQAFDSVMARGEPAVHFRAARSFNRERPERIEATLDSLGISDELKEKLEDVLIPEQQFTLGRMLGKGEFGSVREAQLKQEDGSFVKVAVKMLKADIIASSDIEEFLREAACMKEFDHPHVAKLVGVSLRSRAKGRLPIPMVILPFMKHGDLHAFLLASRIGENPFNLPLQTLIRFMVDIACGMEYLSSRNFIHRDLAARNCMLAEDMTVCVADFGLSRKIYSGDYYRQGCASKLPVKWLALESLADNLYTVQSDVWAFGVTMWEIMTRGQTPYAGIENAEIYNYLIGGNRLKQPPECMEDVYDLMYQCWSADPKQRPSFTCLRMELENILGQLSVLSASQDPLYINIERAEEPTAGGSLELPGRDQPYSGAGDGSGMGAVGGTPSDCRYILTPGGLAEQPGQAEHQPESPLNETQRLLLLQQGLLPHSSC
Briefly: Residual activity of TYRO3 at 10 uM by microplate scintillation counting.

For test [5], the target named is G protein-coupled receptor kinase 5 (Homo sapiens) (UniProt P34947). The test can be described thus: Residual activity of GRK5 at 0.1 uM by microplate scintillation counting.
The target in test [6] is Maternal embryonic leucine zipper kinase (Homo sapiens) (UniProt Q14680). Briefly: Residual activity of MELK at 1 uM by microplate scintillation counting.
The next test concerns the target Aurora kinase B (Homo sapiens, UniProt Q96GD4). The test can be described thus: Residual activity of Aurora-B at 1 uM by microplate scintillation counting.

Protein kinase C theta type (Homo sapiens), sequence (Q04759 whole entry, looked up): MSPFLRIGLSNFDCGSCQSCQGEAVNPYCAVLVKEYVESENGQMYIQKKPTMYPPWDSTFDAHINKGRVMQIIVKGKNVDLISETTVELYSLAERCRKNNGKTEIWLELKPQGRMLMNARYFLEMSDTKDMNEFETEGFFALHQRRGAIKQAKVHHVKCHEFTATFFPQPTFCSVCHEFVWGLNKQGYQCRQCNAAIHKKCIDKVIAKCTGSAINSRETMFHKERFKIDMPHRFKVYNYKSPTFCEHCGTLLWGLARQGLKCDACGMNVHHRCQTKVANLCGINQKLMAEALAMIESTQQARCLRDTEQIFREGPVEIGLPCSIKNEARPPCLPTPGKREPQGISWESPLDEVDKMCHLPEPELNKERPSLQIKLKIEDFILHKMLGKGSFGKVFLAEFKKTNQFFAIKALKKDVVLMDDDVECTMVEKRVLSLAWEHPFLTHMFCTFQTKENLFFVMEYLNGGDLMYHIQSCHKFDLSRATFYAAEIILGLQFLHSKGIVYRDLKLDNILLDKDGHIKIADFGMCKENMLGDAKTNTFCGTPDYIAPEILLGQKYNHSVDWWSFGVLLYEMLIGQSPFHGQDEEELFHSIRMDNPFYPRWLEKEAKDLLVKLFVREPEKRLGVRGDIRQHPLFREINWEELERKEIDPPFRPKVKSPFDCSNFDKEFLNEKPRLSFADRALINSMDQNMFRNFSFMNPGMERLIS
G protein-coupled receptor kinase 5 (Homo sapiens), sequence (P34947 whole entry, looked up): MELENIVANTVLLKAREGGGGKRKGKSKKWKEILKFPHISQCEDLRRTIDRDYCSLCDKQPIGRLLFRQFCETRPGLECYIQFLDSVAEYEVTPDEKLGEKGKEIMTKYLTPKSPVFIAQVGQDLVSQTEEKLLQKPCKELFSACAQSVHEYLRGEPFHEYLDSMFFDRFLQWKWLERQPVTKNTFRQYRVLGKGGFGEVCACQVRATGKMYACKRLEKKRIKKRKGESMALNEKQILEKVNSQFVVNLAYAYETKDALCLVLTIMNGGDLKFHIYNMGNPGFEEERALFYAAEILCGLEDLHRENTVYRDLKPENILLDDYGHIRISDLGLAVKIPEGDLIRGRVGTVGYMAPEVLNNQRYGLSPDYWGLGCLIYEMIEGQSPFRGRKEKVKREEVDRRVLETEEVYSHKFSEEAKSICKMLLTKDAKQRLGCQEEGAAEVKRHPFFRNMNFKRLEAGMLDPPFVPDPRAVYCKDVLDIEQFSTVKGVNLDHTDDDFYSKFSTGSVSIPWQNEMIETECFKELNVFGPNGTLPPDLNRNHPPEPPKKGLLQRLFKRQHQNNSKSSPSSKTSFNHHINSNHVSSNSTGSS
Aurora kinase B, sequence (Q96GD4 whole entry): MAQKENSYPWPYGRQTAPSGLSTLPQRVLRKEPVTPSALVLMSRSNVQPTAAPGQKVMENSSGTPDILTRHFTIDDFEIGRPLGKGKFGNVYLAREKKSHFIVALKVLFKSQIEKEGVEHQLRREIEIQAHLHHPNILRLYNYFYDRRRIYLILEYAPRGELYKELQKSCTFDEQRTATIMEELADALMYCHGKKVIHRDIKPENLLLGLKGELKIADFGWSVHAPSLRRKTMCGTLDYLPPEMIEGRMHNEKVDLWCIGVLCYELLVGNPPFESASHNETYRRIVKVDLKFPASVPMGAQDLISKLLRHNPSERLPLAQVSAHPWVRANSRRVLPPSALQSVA
Maternal embryonic leucine zipper kinase (Homo sapiens), sequence (Q14680 whole entry, looked up): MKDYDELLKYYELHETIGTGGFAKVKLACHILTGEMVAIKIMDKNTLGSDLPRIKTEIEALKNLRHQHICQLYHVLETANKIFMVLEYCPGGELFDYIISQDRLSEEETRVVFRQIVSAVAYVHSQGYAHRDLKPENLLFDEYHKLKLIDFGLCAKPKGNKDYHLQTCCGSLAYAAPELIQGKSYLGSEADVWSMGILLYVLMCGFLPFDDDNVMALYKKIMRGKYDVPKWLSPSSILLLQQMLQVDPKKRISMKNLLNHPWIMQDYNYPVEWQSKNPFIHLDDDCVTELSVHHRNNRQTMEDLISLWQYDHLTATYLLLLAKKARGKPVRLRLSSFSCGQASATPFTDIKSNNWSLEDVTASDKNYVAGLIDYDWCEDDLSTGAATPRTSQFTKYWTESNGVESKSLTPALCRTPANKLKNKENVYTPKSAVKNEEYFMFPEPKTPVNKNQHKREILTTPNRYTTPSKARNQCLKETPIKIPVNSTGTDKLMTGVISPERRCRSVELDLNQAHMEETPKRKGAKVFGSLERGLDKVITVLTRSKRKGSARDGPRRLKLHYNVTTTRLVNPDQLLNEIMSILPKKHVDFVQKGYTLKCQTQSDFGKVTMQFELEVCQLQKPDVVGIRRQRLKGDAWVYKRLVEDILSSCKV

On to `COc1cc2c(Oc3ccc(-c4nc5ccccc5s4)cc3F)ncnc2cc1OCCCN1CCN(C)CC1`, for which the residual activity (commonly the signal under treatment as a percentage of the control signal) in test [1] is 125%; in test [2], 101%; in test [3], 87%; in test [4] it was 17%; in test [5], 86%; in test [6], 68%. For the same molecule, on Aurora kinase B, the residual activity stood at 20%.

Take `COc1cc2c(Oc3ccc(-c4nc5ccccc5s4)cc3)ncnc2cc1OCCCN1CCN(C)CC1`: the residual activity in test [1] was 135%; in test [2], 90%; in test [3] it was 96%; in test [4] it was 84%; in test [5], 87%; in test [6], 106%. Besides, at Aurora kinase B, the residual activity came to 18%.

Regarding `COc1cc2c(Oc3ccc(-c4nc5ccccc5s4)cc3)ncnc2cc1OCCCN1CCCC1`, the residual activity in test [1] worked out at 110%; in test [2], 102%; in test [3], 64%; in test [4] it was 120%; in test [5], 86%; in test [6], 78%. At Aurora kinase B, the residual activity was 24%.
